Data taken from patent publication US6878725B2, “Serine protease inhibitors” (Eli Lilly and Company, priority 2001, dated 2005).

| melting point [°C] | SMILES |
| --- | --- |
| 205 to 215 | Cl.O=C(N[C@@H](C(=O)N1CCC(Nc2ccncc2)CC1)c1ccccc1)c1ccc2cc[nH]c2c1 |
| 128 to 134 | O=C(N[C@@H](C(=O)N1CCC(Nc2ccccn2)CC1)c1ccccc1)c1ccc2cc[nH]c2c1 [Example 39, 1-(Indole-6-carbonyl-D-phenylglycinyl)-4-(pyridin-2-ylamino)piperidine] |
